Measurements from patent US20020137929A1, “1 - (3-heterocyclylphenyl) isothiourea, -isourea, -guanidine and -amidine herbicidal agents” (Intellectual Property Department, BASF Aktiengesellschaft, priority 1998, published 2002).

How the values were obtained:
AMBEL (Ragweed, Common) = assay: Preemergence herbicidal evaluation; format: in vivo, Ambrosia artemisifolia; conditions: rated 4-5 weeks after treatment; for AMBEL rating: preemergence, 0-9 scale
Outline: (§1)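 Preemergence soil application of compound, sprayed in aqueous acetone at rates equivalent to about 0.0156 to 0.500 kg per hectare onto freshly sown cups. Plant response was judged by eye on a 0-9 scale four to five weeks later.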

[1] = tested on: SAGPY (Arrowhead (Pygmaea)); assay: Postemergence weed control under flooded paddy conditions; format: in vivo, Sagittaria pygmaea; conditions: postemergence weeds, rated 3 to 4 weeks after treatment
Outline: (§2)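 Weeds 3 to 5 cm tall and rice seedlings at the 1.5 to 2.5 leaf stage were flooded, with water held 1.5 to 3 cm above the soil. Compounds in 50/50 v/v aqueous/acetone went into the flood water at about 0.0313 to 0.500 kg/ha. Visual 0-9 ratings versus control were made 3 to 4 weeks later.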

MOOVA (Monochoria) = assay: as above; format: in vivo, Monochoria vaginalis; conditions: postemergence weeds, rated 3 to 4 weeks after treatment
Outline: as §2

ABUTH (Velvetleaf) = assay: Preemergence herbicidal evaluation; format: in vivo, Abutilon theophrasti; conditions: rated 4-5 weeks after treatment; for ABUTH rating: preemergence, 0-9 scale
Outline: as §1

ORYSAT (Rice, Tebonnet) [2] = assay: Rice tolerance to post-transplant applications, flooded paddy conditions (Table IV); format: in vivo, Oryza sativa, (L.) Tebonnet
Outline: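 Injury ratings (0–9 scale covering stand, vigor, malformation, size, chlorosis and overall appearance versus control) were made three to four weeks after treatment. Test material, about 0.0313 to 0.500 kg/ha a.i. in 50/50 v/v aqueous/acetone, was added to flood water 1.5 to 3 cm deep over 3 to 5 cm weeds and 1.5 to 2.5 leaf rice.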

[3] = tested on: GLXMAW (Soybean, Williams); assay: Preemergence herbicidal evaluation; format: in vivo, Glycine max, (L.) Merr. cv Williams; conditions: rated 4-5 weeks after treatment; for GLXMAW rating: preemergence, 0-9 scale
Outline: as §1

ORYSAT (Rice, Tebonnet) [4] = assay: Rice tolerance to post-transplant applications, flooded paddy conditions (Table III); format: in vivo, Oryza sativa, (L.) Tebonnet
Outline: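 Two ten-day-old Tebonnet seedlings transplanted into flooded silt loam (water 1.5 to 3 cm above soil); three days later the water surface was treated with compound in aqueous/acetone 50/50 at about 0.0313 to 0.500 kg/ha. Visual 0-9 injury rating versus control after three to four weeks in greenhouse.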

ZEAMX (Corn, Field) = assay: Postemergence herbicidal evaluation; format: in vivo, Zea mays; conditions: for ZEAMX herbicidal rating: postemergence
Outline: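 Scores (0–9) reflect plant stand, vigor, malformation, size, chlorosis and general appearance relative to control, read 4 to 5 weeks after treatment and averaged where tests were repeated. Application: about 0.0156–0.500 kg/ha sprayed at 40 psi onto two-week seedlings.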

[5] = Rate 0.0313 kg/ha, flooded paddy, post-transplant rice, rated 3 to 4 weeks after treatment
[6] = Rate 0.0625 kg/ha, flooded paddy, post-transplant rice, rated 3 to 4 weeks after treatment
[7] = Rate 0.1250 kg/ha, flooded paddy, post-transplant rice, rated 3 to 4 weeks after treatment
[8] = Rate 0.2500 kg/ha, flooded paddy, post-transplant rice, rated 3 to 4 weeks after treatment
[9] = 0.0313 kg/ha, post-transplant rice, flooded paddy, rated 3-4 weeks after treatment
[10] = 0.0625 kg/ha, post-transplant rice, flooded paddy, rated 3-4 weeks after treatment
[11] = 0.1250 kg/ha, post-transplant rice, flooded paddy, rated 3-4 weeks after treatment
[12] = 0.2500 kg/ha, post-transplant rice, flooded paddy, rated 3-4 weeks after treatment

CN1C(=O)C(CC(=O)O)SC1=Nc1cc(-n2c(=O)cc(C(F)(F)F)n(C)c2=O)c(F)cc1Cl (stereo not shown) [Compound 63, 2-{{2-Chloro-5-[3,6-dihydro-3-methyl-2,6-dioxo-4-(trifluoromethyl)-1(2H)-pyrimidinyl]-4-fluoro-phenyl}imino}-3-methyl-4-oxo-5-thiazolidineacetic acid]
4.0: Herbicidal rating SAGPY ([1]; Rate 0.0313 kg/ha) | Preemergence herbicidal rating GLXMAW ([3]; rate 0.0625 kg/ha)
3.0: Herbicidal rating ORYSAT (rice tolerance) (ORYSAT (Rice, Tebonnet) [2]; in vivo) | ORYSAT herbicidal effect rating (rice tolerance) (ORYSAT (Rice, Tebonnet) [4]; in vivo)
7.5: Postemergence herbicidal rating ZEAMX (ZEAMX (Corn, Field); Rate 0.0315 kg/ha) | Postemergence herbicidal rating ZEAMX (ZEAMX (Corn, Field); Rate 0.0630 kg/ha)
9.0: Preemergence herbicidal rating AMBEL (AMBEL (Ragweed, Common); rate 0.1250 kg/ha) | Preemergence herbicidal rating AMBEL (AMBEL (Ragweed, Common); rate 0.2500 kg/ha) | Herbicidal rating SAGPY ([1]; Rate 0.1250 kg/ha) | Herbicidal rating SAGPY ([1]; Rate 0.2500 kg/ha) | Herbicidal rating MOOVA (MOOVA (Monochoria); Rate 0.0313 kg/ha) | Herbicidal rating MOOVA (MOOVA (Monochoria); Rate 0.0625 kg/ha) | Herbicidal rating MOOVA (MOOVA (Monochoria); Rate 0.1250 kg/ha) | Herbicidal rating MOOVA (MOOVA (Monochoria); Rate 0.2500 kg/ha) | Preemergence herbicidal rating ABUTH (ABUTH (Velvetleaf); rate 0.0625 kg/ha) | Preemergence herbicidal rating ABUTH (ABUTH (Velvetleaf); rate 0.1250 kg/ha) | Preemergence herbicidal rating ABUTH (ABUTH (Velvetleaf); rate 0.2500 kg/ha)
7.0: Herbicidal rating SAGPY ([1]; Rate 0.0625 kg/ha) | Preemergence herbicidal rating GLXMAW ([3]; rate 0.2500 kg/ha) | Postemergence herbicidal rating ZEAMX (ZEAMX (Corn, Field); Rate 0.0158 kg/ha)
1.0: Preemergence herbicidal rating ABUTH (ABUTH (Velvetleaf); rate 0.0156 kg/ha) | Preemergence herbicidal rating GLXMAW ([3]; rate 0.0313 kg/ha)
6.0: Preemergence herbicidal rating AMBEL (AMBEL (Ragweed, Common); rate 0.0625 kg/ha) | Preemergence herbicidal rating ABUTH (ABUTH (Velvetleaf); rate 0.0313 kg/ha) | Preemergence herbicidal rating GLXMAW ([3]; rate 0.1250 kg/ha)
0.0: Preemergence herbicidal rating AMBEL (AMBEL (Ragweed, Common); rate 0.0156 kg/ha) | Preemergence herbicidal rating AMBEL (AMBEL (Ragweed, Common); rate 0.0313 kg/ha) | Preemergence herbicidal rating GLXMAW ([3]; rate 0.0156 kg/ha)

C=CCN1C(=O)C(CC(=O)OCCF)SC1=Nc1cc(-n2c(=O)cc(C(F)(F)F)n(C)c2=O)c(F)cc1Cl (stereo not shown) [Compound 86, 2-Fluoroethyl 3-allyl-2-{{2-chloro-5-[3,6-dihydro-3-methyl-2,6-dioxo-4-(trifluoromethyl)-1(2H)-pyrimidinyl]-4-fluorophenyl}imino}-4-oxo-5-thiazolidineacetate]
9.0: AMBEL rating (AMBEL (Ragweed, Common); 0.1250 kg/ha) | AMBEL rating (AMBEL (Ragweed, Common); 0.2500 kg/ha) | AMBEL rating (AMBEL (Ragweed, Common); 0.5000 kg/ha) | Herbicidal rating SAGPY ([1]; Rate 0.0625 kg/ha) | Herbicidal rating SAGPY ([1]; Rate 0.1250 kg/ha) | Herbicidal rating SAGPY ([1]; Rate 0.2500 kg/ha) | Herbicidal rating MOOVA (MOOVA (Monochoria); Rate 0.0313 kg/ha) | Herbicidal rating MOOVA (MOOVA (Monochoria); Rate 0.0625 kg/ha) | Herbicidal rating MOOVA (MOOVA (Monochoria); Rate 0.1250 kg/ha) | Herbicidal rating MOOVA (MOOVA (Monochoria); Rate 0.2500 kg/ha) | ABUTH rating (ABUTH (Velvetleaf); 0.0156 kg/ha) | ABUTH rating (ABUTH (Velvetleaf); 0.0313 kg/ha) | ABUTH rating (ABUTH (Velvetleaf); 0.0625 kg/ha) | ABUTH rating (ABUTH (Velvetleaf); 0.1250 kg/ha) | ABUTH rating (ABUTH (Velvetleaf); 0.2500 kg/ha) | ABUTH rating (ABUTH (Velvetleaf); 0.5000 kg/ha) | ZEAMX herbicidal rating (ZEAMX (Corn, Field); rate 0.1250 kg/ha)
5.0: Herbicidal rating SAGPY ([1]; Rate 0.0313 kg/ha) | Herbicidal rating ORYSAT (rice tolerance) (ORYSAT (Rice, Tebonnet) [2]; [8]) | ORYSAT herbicidal effect rating (rice tolerance) (ORYSAT (Rice, Tebonnet) [4]; [12])
8.5: ZEAMX herbicidal rating (ZEAMX (Corn, Field); rate 0.0625 kg/ha)
7.5: ZEAMX herbicidal rating (ZEAMX (Corn, Field); rate 0.0156 kg/ha)
0.0: AMBEL rating (AMBEL (Ragweed, Common); 0.0156 kg/ha) | AMBEL rating (AMBEL (Ragweed, Common); 0.0313 kg/ha) | GLXMAW rating ([3]; 0.0156 kg/ha) | GLXMAW rating ([3]; 0.0313 kg/ha) | GLXMAW rating ([3]; 0.0625 kg/ha) | GLXMAW rating ([3]; 0.1250 kg/ha)
3.0: Herbicidal rating ORYSAT (rice tolerance) (ORYSAT (Rice, Tebonnet) [2]; [5]) | ORYSAT herbicidal effect rating (rice tolerance) (ORYSAT (Rice, Tebonnet) [4]; [9])
6.0: AMBEL rating (AMBEL (Ragweed, Common); 0.0625 kg/ha)
8.0: GLXMAW rating ([3]; 0.5000 kg/ha) | ZEAMX herbicidal rating (ZEAMX (Corn, Field); rate 0.0313 kg/ha)
4.0: Herbicidal rating ORYSAT (rice tolerance) (ORYSAT (Rice, Tebonnet) [2]; [6]) | Herbicidal rating ORYSAT (rice tolerance) (ORYSAT (Rice, Tebonnet) [2]; [7]) | GLXMAW rating ([3]; 0.2500 kg/ha) | ORYSAT herbicidal effect rating (rice tolerance) (ORYSAT (Rice, Tebonnet) [4]; [10]) | ORYSAT herbicidal effect rating (rice tolerance) (ORYSAT (Rice, Tebonnet) [4]; [11])

CN1C(=O)C(CC(=O)OCCF)SC1=Nc1cc(-n2c(=O)cc(C(F)(F)F)n(C)c2=O)c(F)cc1Cl (stereo not shown) [Compound 93, 2-Fluoroethyl 2-{{2-chloro-5-[3,6-dihydro-3-methyl-2,6-dioxo-4-(trifluoromethyl)-1(2H)-pyrimidinyl]-4-fluorophenyl}imino}-3-methyl-4-oxo-5-thiazolidineacetate]
5.0: ABUTH rating (ABUTH (Velvetleaf); 0.0313 kg/ha)
0.0: AMBEL rating (AMBEL (Ragweed, Common); 0.0313 kg/ha) | AMBEL rating (AMBEL (Ragweed, Common); 0.0625 kg/ha) | Herbicidal rating SAGPY ([1]; Rate 0.0313 kg/ha) | Herbicidal rating SAGPY ([1]; Rate 0.0625 kg/ha) | Herbicidal rating ORYSAT (rice tolerance) (ORYSAT (Rice, Tebonnet) [2]; [5]) | Herbicidal rating ORYSAT (rice tolerance) (ORYSAT (Rice, Tebonnet) [2]; [6]) | Herbicidal rating ORYSAT (rice tolerance) (ORYSAT (Rice, Tebonnet) [2]; [7]) | GLXMAW rating ([3]; 0.0313 kg/ha) | GLXMAW rating ([3]; 0.0625 kg/ha) | ORYSAT herbicidal effect rating (rice tolerance) (ORYSAT (Rice, Tebonnet) [4]; [9]) | ORYSAT herbicidal effect rating (rice tolerance) (ORYSAT (Rice, Tebonnet) [4]; [10]) | ORYSAT herbicidal effect rating (rice tolerance) (ORYSAT (Rice, Tebonnet) [4]; [11])
9.0: AMBEL rating (AMBEL (Ragweed, Common); 0.1250 kg/ha) | AMBEL rating (AMBEL (Ragweed, Common); 0.2500 kg/ha) | Herbicidal rating SAGPY ([1]; Rate 0.2500 kg/ha) | Herbicidal rating MOOVA (MOOVA (Monochoria); Rate 0.0313 kg/ha) | Herbicidal rating MOOVA (MOOVA (Monochoria); Rate 0.0625 kg/ha) | Herbicidal rating MOOVA (MOOVA (Monochoria); Rate 0.1250 kg/ha) | Herbicidal rating MOOVA (MOOVA (Monochoria); Rate 0.2500 kg/ha) | ABUTH rating (ABUTH (Velvetleaf); 0.0625 kg/ha) | ABUTH rating (ABUTH (Velvetleaf); 0.1250 kg/ha) | ABUTH rating (ABUTH (Velvetleaf); 0.2500 kg/ha)
8.0: GLXMAW rating ([3]; 0.2500 kg/ha) | ZEAMX herbicidal rating (ZEAMX (Corn, Field); rate 0.0630 kg/ha)
7.5: ZEAMX herbicidal rating (ZEAMX (Corn, Field); rate 0.0158 kg/ha) | ZEAMX herbicidal rating (ZEAMX (Corn, Field); rate 0.0315 kg/ha)
3.0: Herbicidal rating SAGPY ([1]; Rate 0.1250 kg/ha) | Herbicidal rating ORYSAT (rice tolerance) (ORYSAT (Rice, Tebonnet) [2]; [8]) | ORYSAT herbicidal effect rating (rice tolerance) (ORYSAT (Rice, Tebonnet) [4]; [12])
4.0: GLXMAW rating ([3]; 0.1250 kg/ha)
